# Earlier results in PMC4629263 (Acta Pharmaceutica Sinica. B, 2015).
# Assays:
# [1] = room temperature
# [2] = mice
structure (smiles),measurement,setting,value
COc1cc(N)c2c(c1O)-c1c(OC)c(OC)cc3c1[C@H](C2)N(C)CC3 [8-amino-isocorydine],Stability in aqueous solution,[1],not stable
"COc1ccc2c(c1O)-c1c(OC)c(OC)cc3c1[C@H](C2)N(C)CC3 [ICD, Isocorydine]",LD50,[2],32.2 mg/kg
same,pKa,,7.16
